Results: US7198803B2, “Sustained release oral preparations” (Nippon Shinyaku Co., Ltd., priority 2000, dated 2007)

Experiments:
[1] = test system: calcium-sensitive potassium channel; conditions: known from PCT WO99/36068; cited from earlier work
[2] = plasma half life of the drug; conditions: in vivo

- plasma half life [2]: short plasma half life
SMILES: Cc1c(-c2ccccc2F)[nH]c(N)c1C#N [2-amino-3-cyano-5-(2-fluorophenyl)-4-methylpyrrole]
- potassium channel activating effect [1]: bladder-selective calcium-sensitive potassium channel activating effect
